{"source": "patent US6617315B1", "about": "“Therapeutic compounds” (priority 1996, dated 2003)", "key": {"HCMV strain AD169": {"tested_on": "HCMV strain AD169", "experiment": "Human Cytomegalovirus (HCMV) assay, antiviral effect by HCMV DNA hybridization", "type": "cell-based", "settings": "HCMV strain AD169 on MRC5 cell monolayers, 96 well plates, 5 days incubation, HCMV DNA by blotting and quantitative specific DNA hybridization", "method": "Human Cytomegalovirus (HCMV) Assay\n(§1) HCMV strain AD169 was grown on monolayers of human embryonic lung cells (MRC5 cells) in 96 well plates. After infection of the cells at a ratio of approximately 0.01 infectious virus particals per cell, the compounds to be tested were added to selected wells at six different concentrations, each in triplicate The same concentrations of compound were also applied to wells containing monolayers of uninfected cells in order to assess compound cytotoxicity. The plates were incubated for 5 days, and the minimum cytotoxic dose was estimated from microscopic examination. The IC50 for antiviral effect was estimated from measurements of HCMV DNA in each well by blotting and quantitative specific DNA hybridization, similar to the method of Gadler. (Antimicrob. Agents Chemother. 1983, 24, 370-374)."}, "MRC5 cells": {"tested_on": "MRC5 cells", "experiment": "Compound cytotoxicity on uninfected MRC5 cell monolayers", "type": "cell-based, human", "method": "as §1"}, "[1]": {"experiment": "Compound cytotoxicity on uninfected MRC5 cell monolayers", "type": "cell-based, human", "settings": "uninfected MRC5 cell monolayers (human embryonic lung cells); uninfected human embryonic lung cells (MRC5), 5 days incubation, estimated from microscopic examination; read-out: MRC5 tox CC50", "method": "as §1"}}, "data": [{"molecule": "2-(Isopropylamino)-4,5,6-trichloro-1-(beta-L-erythro-pentofuranosyl)-1H-benzimidazole [Example 58]", "values": [{"measurement": "IC50", "setting": "HCMV strain AD169", "value": 0.15, "unit": "µM"}, {"measurement": "CC50", "setting": "MRC5 cells", "value": 20, "unit": "µM"}]}, {"molecule": "C[C@@H]1O[C@H](n2c(NC3CC3)nc3cc(Cl)c(Cl)cc32)[C@@H](O)[C@H]1O", "note": "[Example 1, 2-Cyclopropylamino-5,6-dichloro-1-(5-deoxy-beta-L-ribofuranosyl)-1H-benzimidazole]", "values": [{"measurement": "melting point", "value": "186 to 187", "unit": "°C"}, {"measurement": "IC50", "setting": "HCMV strain AD169; Human betaherpesvirus 5, 120 h", "value": 2.1, "unit": "µM"}, {"measurement": "CC50 at 5 days", "setting": "[1]", "value": 100, "unit": "µM"}]}, {"molecule": "CC(C)Nc1nc2cc(Cl)c(Cl)cc2n1[C@H]1O[C@@H](C)[C@H](O)[C@@H]1O", "note": "[Example 3, 2-Isopropylamino-5,6-dichloro-1-(5-deoxy-beta-L-ribofuranosyl)-1H-benzimidazole]", "values": [{"measurement": "melting point", "value": "103 to 105", "unit": "°C"}, {"measurement": "IC50", "setting": "HCMV strain AD169; Human betaherpesvirus 5, 120 h", "value": 0.6, "unit": "µM"}, {"measurement": "CC50 at 5 days", "setting": "[1]", "value": 30, "unit": "µM"}]}, {"molecule": "C[C@@H]1O[C@H](n2c(Br)nc3cc(Cl)c(Cl)cc32)[C@@H](O)[C@H]1O", "note": "[Example 4, 2-Bromo-5,6-dichloro-1-(5-deoxy-beta-L-ribofuranosyl)-1H-benzimidazole]", "values": [{"measurement": "melting point", "value": "136 to 138", "unit": "°C"}]}, {"molecule": "CC(C)Nc1nc2cc(Cl)c(Cl)cc2n1[C@H]1O[C@@H](CCl)[C@H](O)[C@@H]1O", "note": "[Example 12, 1-(5-Chloro-5-deoxy-beta-L-ribofuranosyl)-5,6-dichloro-2-isopropylamino-1H-benzimidazole]", "values": [{"measurement": "melting point", "value": "95 to 97", "unit": "°C"}, {"measurement": "IC50", "setting": "HCMV strain AD169; Human betaherpesvirus 5, 120 h", "value": 1.4, "unit": "µM"}, {"measurement": "CC50 at 5 days", "setting": "[1]", "value": 30, "unit": "µM"}]}, {"molecule": "CC(C)(C)Nc1nc2cc(Cl)c(Cl)cc2n1[C@H]1O[C@@H](CCl)[C@H](O)[C@@H]1O", "note": "[Example 14, 2-tert-Butylamino-1-(5-Chloro-5-deoxy-beta-L-ribofuranosyl)-5,6-dichloro-1H-benzimidazole]", "values": [{"measurement": "melting point", "value": "112 to 114", "unit": "°C"}, {"measurement": "IC50", "setting": "HCMV strain AD169; Human betaherpesvirus 5, 120 h", "value": 1, "unit": "µM"}, {"measurement": "CC50 at 5 days", "setting": "[1]", "value": 30, "unit": "µM"}]}, {"molecule": "CC(C)Nc1nc2cc(Cl)c(Cl)cc2n1[C@H]1O[C@@H](CO)C[C@@H]1O", "note": "[Example 16, 5,6-Dichloro-1-(3-deoxy-beta-L-ribofuranosyl)-2-isopropylamino-1H-benzimidazole]", "values": [{"measurement": "melting point", "value": "153 to 155", "unit": "°C"}, {"measurement": "IC50", "setting": "HCMV strain AD169; Human betaherpesvirus 5, 120 h", "value": 0.2, "unit": "µM"}, {"measurement": "CC50 at 5 days", "setting": "[1]", "value": 100, "unit": "µM"}]}, {"molecule": "CC(C)Nc1nc2cc(Cl)c(Cl)cc2n1[C@@H]1C[C@@H](O)[C@H](CO)O1", "note": "[Example 19, 5,6-Dichloro-1-(2-deoxy-beta-L-erythro-pentofuranosyl)-2-isopropylamino-1H-benzimidazole]", "values": [{"measurement": "melting point", "value": "114 to 115", "unit": "°C"}, {"measurement": "IC50", "setting": "HCMV strain AD169; Human betaherpesvirus 5, 120 h", "value": 0.1, "unit": "µM"}, {"measurement": "CC50 at 5 days", "setting": "[1]", "value": 100, "unit": "µM"}]}, {"molecule": "CC(C)Nc1nc2c(Cl)c(Cl)c(Cl)cc2n1[C@H]1O[C@@H](CO)[C@H](O)[C@@H]1O", "note": "[Example 31, 2-(Isopropylamino)-4,5,6-trichloro-1-(beta-L-ribofuranosyl)-1H-benzimidazole]", "values": [{"measurement": "melting point", "value": "223 to 224", "unit": "°C"}]}, {"molecule": "CC(C)Nc1nc2c(Br)c(Cl)c(Cl)cc2n1[C@H]1O[C@@H](CO)[C@H](O)[C@@H]1O", "note": "[Example 39, 4-Bromo-5,6-dichloro-2-(isopropylamino)-1-(beta-L-ribofuranosyl)-1H-benzimidazole]", "values": [{"measurement": "melting point", "value": "221 to 222", "unit": "°C"}]}, {"molecule": "CC(C)Nc1nc2cc(F)c(F)cc2n1[C@H]1O[C@@H](CO)[C@H](O)[C@@H]1O", "note": "[Example 46, 5,6-Difluoro-2-(isopropylamino)-1-(beta-L-ribofuranosyl)-1H-benzimidazole]", "values": [{"measurement": "melting point", "value": "156 to 158", "unit": "°C"}]}, {"molecule": "CC(C)Nc1nc2c(Cl)cccc2n1[C@H]1O[C@@H](CO)[C@H](O)[C@@H]1O", "note": "[Example 50, 4-Chloro-2-(isopropylamino)-1-(beta-L-ribofuranosyl)-1H-benzimidazole]", "values": [{"measurement": "melting point", "value": "225 to 227", "unit": "°C"}]}, {"molecule": "CC(C)Nc1nc2c(Cl)cc(Cl)cc2n1[C@H]1O[C@@H](CO)[C@H](O)[C@@H]1O", "note": "[Example 53, 4,6-Dichloro-2-(isopropylamino)-1-(beta-L-ribofuranosyl)-1H-benzimidazole]", "values": [{"measurement": "melting point", "value": "212 to 214", "unit": "°C"}, {"measurement": "IC50", "setting": "HCMV strain AD169; Human betaherpesvirus 5, 120 h", "value": 0.15, "unit": "µM"}, {"measurement": "CC50 at 5 days", "setting": "[1]", "value": 100, "unit": "µM"}]}]}
